Measured values: article PMC3563301 (Journal of medicinal chemistry, 2012)

How the values were obtained:
CYP2D6 = CYP2D6 (Homo sapiens, UniProt P10635); assay: CYP450 inhibition, CYP2D6; assay type: biochemical; conditions: recombinant CYP2D6 (Supersomes, Gentest), pH 7.4
OVCAR-8 = assay: Growth inhibition of OVCAR-8 cells; assay type: cell-based; conditions: Homo sapiens, OVCAR-8, 96 h, read-out: IC50 ± SD OVCAR-8
[1] = test system: HeLa, HT29, A549, HCT 116, and HCT 15 cell lines; assay: Average growth inhibition over five cell lines; assay type: cell-based; conditions: Homo sapiens, read-out: average IC50 for the five cell lines, HeLa, HT-29, A549, HCT 116, HCT 15; for comparative purposes
Caco-2 cell permeability = assay type: in vitro ADME; conditions: human
U87MG cells [2] = assay: Loss of mitochondrial potential; assay type: cell-based, human; conditions: 30 μM, 24 h, JC-1
U87MG cells [3] = assay: ROS generation; assay type: cell-based, human; conditions: 400 mM H2O2, 1 h treatment

CYP2D6, sequence (P10635 whole entry): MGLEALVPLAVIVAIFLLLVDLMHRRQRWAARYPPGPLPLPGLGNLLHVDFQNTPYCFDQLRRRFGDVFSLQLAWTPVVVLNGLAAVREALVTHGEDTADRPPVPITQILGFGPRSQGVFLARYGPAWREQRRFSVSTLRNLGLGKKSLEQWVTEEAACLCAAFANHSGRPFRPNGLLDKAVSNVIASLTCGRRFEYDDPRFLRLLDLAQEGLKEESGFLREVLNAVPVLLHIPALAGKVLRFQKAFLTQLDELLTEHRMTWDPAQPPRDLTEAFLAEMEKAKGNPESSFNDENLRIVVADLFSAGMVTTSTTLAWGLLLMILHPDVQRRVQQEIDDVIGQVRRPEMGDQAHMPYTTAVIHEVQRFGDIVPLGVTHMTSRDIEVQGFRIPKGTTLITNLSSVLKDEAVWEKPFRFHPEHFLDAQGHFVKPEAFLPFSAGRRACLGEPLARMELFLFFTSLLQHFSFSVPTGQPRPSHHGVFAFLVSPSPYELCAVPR

Which inhibition at 30 min, 1 µM (CYP2D6) does the source give for COc1cc(Sc2c(-n3ccnc3)[nH]c3ccccc23)cc(OC)c1OC [Compound 18, 2-(1H-Imidazol-1-yl)-3-((3,4,5-trimethoxyphenyl)thio)-1H-indole] here?
Its inhibition at 30 min, 1 µM is under 50%.

With CC[C@]1(O)C[C@@H]2CN(CCc3c([nH]c4ccccc34)[C@@](C(=O)OC)(c3cc4c(cc3OC)N(C)[C@H]3[C@@](O)(C(=O)OC)[C@H](OC(C)=O)[C@]5(CC)C=CCN6CC[C@]43[C@@H]65)C2)C1 [VBL, vinblastine] as the molecule, how does the IC50 (OVCAR-8) read?
The IC50 was 15 ± 7 nM.

What about the IC50 [1] of the same molecule?
Its IC50 is 17 nM.

For COc1cc(Sc2c(-c3cccnc3)[nH]c3ccccc23)cc(OC)c1OC [Compound 55, 2-(Pyridin-3-yl)-3-((3,4,5-trimethoxyphenyl)thio)-1H-indole], which inhibition at 30 min, 1 µM (CYP2D6) is on record?
The inhibition at 30 min, 1 µM was under 50%.

For CN/C(=N/CCSCc1nc[nH]c1C)NC#N [cimetidine], which Papp A→B at 2 h, 10 μM (Caco-2 cell permeability) is on record?
The Papp A→B at 2 h, 10 μM was 0.11 ×10⁻⁶ cm/s.

What about the Papp B→A at 2 h, 10 μM (Caco-2 cell permeability) of the same molecule?
The Papp B→A at 2 h, 10 μM was 2.13 ×10⁻⁶ cm/s.

Which mitochondrial potential dissipation (U87MG cells [2]) does the source give for N#CC(C#N)=NNc1cccc(Cl)c1 [CCCP, carbonyl cyanide m-chlorophenylhydrazone] here?
The mitochondrial potential dissipation was “about 50%”.

For OO [hydrogen peroxide], which “ROS, fluorescence intensity with respect to control” value (U87MG cells [3]) is on record?
The value was 208%.

For COc1ccc(/C=C\c2cc(OC)c(OC)c(OC)c2)cc1O [Compound 2, combretastatin A-4], which IC50 [1] is on record?
Its IC50 is over 2030 nM.

With CC(=O)O[C@H]1C(=O)[C@@]2(C)[C@H]([C@H](OC(=O)c3ccccc3)[C@]3(O)C[C@H](OC(=O)[C@H](O)[C@@H](NC(=O)c4ccccc4)c4ccccc4)C(C)=C1C3(C)C)[C@]1(OC(C)=O)CO[C@@H]1C[C@@H]2O [PTX, paclitaxel] as the molecule, how does the IC50 [1] read?
The IC50 was 23 nM.

Which inhibition at 30 min, 1 µM (CYP2D6) does the source give for COc1cc(Sc2c(-n3cncn3)[nH]c3ccccc23)cc(OC)c1OC [Compound 20, 2-(1H-1,2,4-Triazol-1-yl)-3-((3,4,5-trimethoxyphenyl)thio)-1H-indole] here?
The inhibition at 30 min, 1 µM was under 50%.

Which inhibition at 30 min, 1 µM (CYP2D6) does the source give for COc1cc(Sc2c(-c3ccncc3)[nH]c3ccccc23)cc(OC)c1OC [Compound 57, 2-(Pyridin-4-yl)-3-((3,4,5-trimethoxyphenyl)thio)-1H-indole] here?
The inhibition at 30 min, 1 µM was under 50%.
